Data taken from ChEMBL document CHEMBL1133366, “Synthesis and structure-activity relationships of 3-cyano-4-(phenoxyanilino)quinolines as MEK (MAPKK) inhibitors” (Bioorg Med Chem Lett, 2000).

What was measured:
[1] = target: T1, Serine/threonine-protein kinase RAF and Dual specificity mitogen-activated protein kinase kinase 1 (Raf/MEK) (Homo sapiens, UniProt P04049+Q02750); experiment: Inhibition of ERK-phosphorylation by Raf-MEK-ERK in coupled ELISA; assay type: protein assay
[2] = target: Dual specificity mitogen-activated protein kinase kinase 1 (Homo sapiens, UniProt Q02750); experiment: Inhibition of ERK-phosphorylation by MEK-ERK in direct ELISA
Dual specificity mitogen-activated protein kinase kinase 1, sequence (Q02750 whole entry): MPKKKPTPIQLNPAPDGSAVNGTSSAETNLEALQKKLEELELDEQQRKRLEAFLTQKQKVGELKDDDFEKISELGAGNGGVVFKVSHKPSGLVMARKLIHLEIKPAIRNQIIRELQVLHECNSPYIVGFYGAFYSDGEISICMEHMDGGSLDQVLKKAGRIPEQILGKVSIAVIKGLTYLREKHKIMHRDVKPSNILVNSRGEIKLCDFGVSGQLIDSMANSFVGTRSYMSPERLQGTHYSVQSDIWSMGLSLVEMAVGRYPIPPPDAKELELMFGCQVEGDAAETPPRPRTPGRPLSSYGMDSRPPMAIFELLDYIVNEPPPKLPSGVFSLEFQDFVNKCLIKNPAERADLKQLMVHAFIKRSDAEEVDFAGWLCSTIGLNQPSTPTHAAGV

LoVo = experiment: Inhibition of LoVo human colon tumor cell proliferation
SW-620 = experiment: Inhibition of SW620 human colon tumor cell proliferation
COLO 205 = experiment: cells; conditions: Homo sapiens
Description: Inhibition of COLO 205 human colon tumor cell proliferation

[3] = target: T1, Serine/threonine-protein kinase RAF and Dual specificity mitogen-activated protein kinase kinase 1 (Raf/MEK); experiment: Inhibition of ERK phosphorylation in coupled Raf-MEK-ERK ELISA (Weakly active); assay type: protein assay

Structure (SMILES)	IC50 [1]	IC50 [2]	IC50 (LoVo)	IC50 (SW-620)	IC50 (COLO 205)	IC50 [3]
COc1ccc(OC)c2c(Nc3ccc(Oc4ccccc4)cc3)c(C#N)cnc12	> 10 µM	> 10 µM				
COc1cccc2c(Nc3ccc(Oc4ccccc4)cc3)c(C#N)cnc12	> 10 µM	> 10 µM				
COc1cc2ncnc(Nc3ccc(Oc4ccccc4)cc3)c2cc1OC						> 100 µM
COc1cc2c(Nc3ccc(Oc4ccccc4)cc3)c(C#N)cnc2c(OC)c1OC	> 10 µM	> 10 µM				
COc1cc2ncc(C#N)c(Nc3ccccc3Oc3ccccc3)c2cc1OC	> 10 µM	> 10 µM				

Results, then the compound that gave them:

IC50 [1]	IC50 [2]	IC50 (LoVo)	IC50 (SW-620)	IC50 (COLO 205)	IC50 [3]	Structure (SMILES)
		630 nM	1500 nM	1430 nM		COc1cc2ncc(C#N)c(Nc3ccc(Oc4ccccc4)cc3)c2cc1OC
		250 nM	700 nM	630 nM		COc1cc2c(Nc3ccc(Oc4ccccc4)cc3)c(C#N)cnc2cc1OCCN1CCOCC1
0.0024 µM	0.007 µM	190 nM	380 nM	360 nM		COc1cc2c(Nc3ccc(Oc4ccccc4)cc3)c(C#N)cnc2cc1OCCCN1CCOCC1
